In article PMC6017115, “Inhibitory Effect of Sauchinone on UDP-Glucuronosyltransferase (UGT) 2B7 Activity” (Molecules : A Journal of Synthetic Chemistry and Natural …, 2018):

Biological target: T1, UGT2B7 (Homo sapiens, UniProt P16662)
T1 sequence (P16662 24-529): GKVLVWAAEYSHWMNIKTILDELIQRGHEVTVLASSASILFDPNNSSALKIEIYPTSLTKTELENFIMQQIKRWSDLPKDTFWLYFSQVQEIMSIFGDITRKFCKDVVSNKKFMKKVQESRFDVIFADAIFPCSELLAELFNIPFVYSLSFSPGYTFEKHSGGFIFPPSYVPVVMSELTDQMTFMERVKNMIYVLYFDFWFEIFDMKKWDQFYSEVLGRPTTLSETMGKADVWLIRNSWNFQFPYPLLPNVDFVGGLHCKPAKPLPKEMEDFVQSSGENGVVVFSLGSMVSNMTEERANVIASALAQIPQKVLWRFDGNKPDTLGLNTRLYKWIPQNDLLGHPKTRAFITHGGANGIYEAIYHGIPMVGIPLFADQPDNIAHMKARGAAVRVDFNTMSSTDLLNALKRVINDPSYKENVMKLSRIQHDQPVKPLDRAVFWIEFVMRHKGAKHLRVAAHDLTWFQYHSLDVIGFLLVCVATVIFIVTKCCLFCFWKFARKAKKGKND
Test: Inhibition of UGT2B7 (zidovudine glucuronidation) in human liver microsomes
Type: in vitro ADME
Design: tissue Corning Life Sciences 452156; host or cells: pooled human liver microsomes
Method: Their IC50 values were compared to that of sauchinone. […] UGT-mediated activities in the presence of sauchinone as an inhibitor were expressed as percentages of corresponding control values (in absence of sauchinone). From percentages of control activity versus inhibitor concentrations, a sigmoid shaped curve was fitted to the data and IC50 as an enzyme inhibition parameter was calculated by fitting the Hill equation to the data using GraphPad Prism 5 (GraphPad Software Inc., San Diego, CA, USA).

IC50: 75.4 µM
Compound: O=C1Nc2ccc(Cl)cc2[C@@](C#CC2CC2)(C(F)(F)F)O1 [Efavirenz]
